Consider one compound from patent publication US20040138109A1, “Potent inhibitor of HCV serine protease” (Boehringer Ingelheim Pharmaceuticals, Inc., priority 2002, published 2004).

A value given as a limit tells only on which side of the number the result lay.

One data set deals with HCV. Nature of the data set: Clinical study in patients with chronic HCV infection, viral load. The class given is in vivo, human. As to conditions: HCV infected patients, oral formulation, within 48 hours after first administration, some patients. The protocol:
(§1) In a first single rising dose trial in healthy male subjects the tolerability and pharmacokinetic parameters of Compound (1) were investigated. […] The degree of viral load reduction upon administration of Compound (1) was a significant and unexpected finding, with some patients even experiencing up to a 3 log reduction in viral load within 48 hours after the first administration of Compound (1).
The term “viral load” with respect to HCV in a mammal means the number of HCV mRNA genome copies per ml of serum present in the mammal. The viral load value can be measured, for example, by mRNA-PCR quantitation in blood samples using Cobas Amplicor HCV Monitor v 2.0 (Roche Diagnostics); Amplicor HCV v 2.0, Roche Diagnostics; HCV Transcription Mediated Amplification (TMA) assay, Bayer Diagnostics; HCV RNA Qualitative Testing (TMA) assay, Bayer Diagnostics; the HCV branched DNA (bDNA) assay version 3.0, Bayer Diagnostics; Versant HCV RNA 3.0 Assay (bDNA), Bayer Diagnostics, and Superquant assay, National Genetics Institute (Los Angeles, Calif.).
The degree of viral load reduction upon the administration of Compound (1) was a significant and unexpected finding, with some patients even experiencing up to a 3 log reduction in viral load within 48 hours after the first administration of Compound (1). […]

Data set [1] deals with NS3 serine protease of HCV genotype 1b (Hepatitis C virus genotype 1b, UniProt P26663). Nature of the data set: Steady state velocity analysis with NS3 serine protease, HCV genotype 1b. The class given is biochemical. As to conditions: non-covalent, competitive mode of inhibition, read-out: Inhibitor constant (Ki). The source says: (§2) A distinguishing feature of the Compound (1) inhibitor series is the presence of a C-terminal carboxylic acid functionality.

Data set [2] can be described thus: Single rising dose trial in healthy male subjects. The class given is in vivo, human. The protocol: as §1
The target of data set [3] is NS3 serine protease of HCV genotype 1a (Hepatitis C virus genotype 1a, UniProt P27958). The data set is described as follows: Steady state velocity analysis with NS3 serine protease, HCV genotype 1a. In kind it is biochemical. As to conditions: non-covalent, competitive mode of inhibition, read-out: Inhibitor constant (Ki).
Source text: as §2

Data set [4] relates to NS3 protease-dependent polyprotein processing. Nature of the data set: NS3 protease-dependent polyprotein processing in HCV replicon-containing cells. In kind it is cell-based.
Source text: as §2
In general terms: Replicon systems follow genome replication, usually without infectious particles.

A further data set has as its system HCV RNA replication. Nature of the data set: HCV RNA replication in the replicon cell model system. As to conditions: human cells. The class given is cell-based.
Source text: as §2

Data set [5] can be described thus: Light sensitivity of the oral solution. In kind it is physicochemical. As to conditions: solution in PEG 400:Ethanol 80:20 w/w. The source says:
Keep away from direct sunlight and cover with aluminium foil whenever possible.

Data set [6] can be described thus: Oral bioavailability in animal species. As to conditions: various animal species. In kind it is in vivo.
Source text: as §2

Sequence of NS3 serine protease of HCV genotype 1a (P27958 1027-1657): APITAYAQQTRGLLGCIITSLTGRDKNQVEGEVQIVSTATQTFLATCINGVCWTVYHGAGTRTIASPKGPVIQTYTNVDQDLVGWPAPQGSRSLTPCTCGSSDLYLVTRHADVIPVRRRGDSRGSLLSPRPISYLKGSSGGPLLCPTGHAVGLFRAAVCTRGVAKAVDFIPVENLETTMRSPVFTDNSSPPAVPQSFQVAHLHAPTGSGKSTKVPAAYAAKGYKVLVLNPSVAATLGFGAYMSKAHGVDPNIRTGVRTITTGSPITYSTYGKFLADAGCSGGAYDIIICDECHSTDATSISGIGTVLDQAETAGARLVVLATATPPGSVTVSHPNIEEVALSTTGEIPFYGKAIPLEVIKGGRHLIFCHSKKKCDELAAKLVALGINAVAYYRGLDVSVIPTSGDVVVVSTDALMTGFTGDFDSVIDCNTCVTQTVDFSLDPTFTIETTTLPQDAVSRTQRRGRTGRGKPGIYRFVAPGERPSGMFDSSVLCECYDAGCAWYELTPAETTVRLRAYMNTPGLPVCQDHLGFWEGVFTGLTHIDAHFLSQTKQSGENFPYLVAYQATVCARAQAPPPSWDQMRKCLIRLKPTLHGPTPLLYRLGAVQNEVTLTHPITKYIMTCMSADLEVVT
Sequence of NS3 serine protease of HCV genotype 1a (P27958 1658-1711): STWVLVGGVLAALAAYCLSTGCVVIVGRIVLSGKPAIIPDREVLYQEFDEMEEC
Sequence of NS3 serine protease of HCV genotype 1b (P26663 1027-1657): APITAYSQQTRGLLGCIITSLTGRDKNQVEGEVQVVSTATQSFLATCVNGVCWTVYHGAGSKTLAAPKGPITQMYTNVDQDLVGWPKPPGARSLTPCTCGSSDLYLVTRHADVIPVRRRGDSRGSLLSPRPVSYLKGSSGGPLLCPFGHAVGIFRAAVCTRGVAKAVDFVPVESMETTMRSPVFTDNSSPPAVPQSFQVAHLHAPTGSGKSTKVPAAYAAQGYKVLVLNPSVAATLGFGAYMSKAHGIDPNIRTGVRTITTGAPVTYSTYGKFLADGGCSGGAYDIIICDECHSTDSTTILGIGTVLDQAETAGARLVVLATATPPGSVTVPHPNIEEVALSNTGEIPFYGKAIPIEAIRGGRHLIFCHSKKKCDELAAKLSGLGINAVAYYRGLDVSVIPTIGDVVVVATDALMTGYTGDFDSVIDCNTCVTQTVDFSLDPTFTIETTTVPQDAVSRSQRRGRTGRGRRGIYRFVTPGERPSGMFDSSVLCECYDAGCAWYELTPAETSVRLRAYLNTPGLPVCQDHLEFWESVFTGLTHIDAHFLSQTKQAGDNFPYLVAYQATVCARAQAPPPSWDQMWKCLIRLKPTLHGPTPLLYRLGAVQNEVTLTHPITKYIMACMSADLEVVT
Sequence of NS3 serine protease of HCV genotype 1b (P26663 1658-1711): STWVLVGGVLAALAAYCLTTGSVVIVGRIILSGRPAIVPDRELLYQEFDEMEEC

For the compound `COc1ccc2c(O[C@@H]3C[C@H]4C(=O)N[C@]5(C(=O)O)C[C@H]5/C=C\CCCCC[C@H](NC(=O)OC5CCCC5)C(=O)N4C3)cc(-c3csc(NC(C)C)n3)nc2c1` [Compound (1)], the “Reduction in viral load” value in the data set with HCV is recorded as at most 3 log. The Ki was 0.66 nM in data set [1] and 0.3 nM in data set [3]. The Tolerability entry in data set [2] is “well tolerated up to 2000 mg”. The “Ability to block NS3 protease-dependent polyprotein processing” value in data set [4] is listed as “block NS3 protease-dependent polyprotein processing”. Moreover, the “Inhibition of HCV RNA replication” value in the data set with HCV RNA replication is on record as “low nanomolar inhibition”. Besides, the Light sensitivity result in data set [5] is “light sensitive”. Moreover, the Oral bioavailability entry in data set [6] is on record as “orally bioavailable”.
